Test results published in ChEMBL document CHEMBL1201861, “Genomics of Drug Sensitity in Cancer screening data, Wellcome Trust Sanger Institute”.

Legend:
Experiment in all cases: cells
CaR-1 = type: functional, cell-based, Homo sapiens;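 further: growth inhibition of human CaR-1 cancer cells, read out with a cell viability assay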
Description: SANGER: Inhibition of human CaR-1 cell growth in a cell viability assay.

EFO-21 = type: functional, cell-based, Homo sapiens;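 further: growth inhibition of EFO-21 cells measured with a viability assay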
Description: SANGER: Inhibition of human EFO-21 cell growth in a cell viability assay.

EPLC-272H = type: functional, cell-based, Homo sapiens
Description: SANGER: Inhibition of human EPLC-272H cell growth in a cell viability assay.

G-401 = type: functional, cell-based, Homo sapiens
Description: SANGER: Inhibition of human G-401 cell growth in a cell viability assay.

H4 = type: functional, cell-based, Homo sapiens
Description: SANGER: Inhibition of human H4 cell growth in a cell viability assay.

HMV-2 cell line = type: functional, cell-based, Homo sapiens;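 further: growth inhibition of HMV-II cells, read out with a cell viability assay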
Description: SANGER: Inhibition of human HMV-II cell growth in a cell viability assay.

HSC-3 = type: functional, cell-based, Homo sapiens
Description: SANGER: Inhibition of human HSC-3 cell growth in a cell viability assay.

HT-3 = type: functional, cell-based, Homo sapiens;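 further: growth inhibition measured with a cell viability readout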
Description: SANGER: Inhibition of human HT-3 cell growth in a cell viability assay.

HT55 = type: functional, cell-based, Homo sapiens;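 further: cell viability readout measuring growth inhibition of human HT55 cells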
Description: SANGER: Inhibition of human HT55 cell growth in a cell viability assay.

JEG-3 = type: functional, cell-based, Homo sapiens;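 further: growth inhibition of human JEG-3 cells, read out with a cell viability assay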
Description: SANGER: Inhibition of human JEG-3 cell growth in a cell viability assay.

KP-4 = type: functional, cell-based, Homo sapiens;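 further: human KP-4 cells, with growth inhibition read out through a cell viability assay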
Description: SANGER: Inhibition of human KP-4 cell growth in a cell viability assay.

KYSE-70 cell line = type: functional, cell-based, Homo sapiens;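 further: cell viability assay read-out, with IC50 expressing suppression of KYSE-70 cell growth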
Description: SANGER: Inhibition of human KYSE-70 cell growth in a cell viability assay.

LCLC-103H cell line = type: functional, cell-based, Homo sapiens
Description: SANGER: Inhibition of human LCLC-103H cell growth in a cell viability assay.

LK-2 = type: functional, cell-based, Homo sapiens;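 further: growth inhibition of LK-2 cells, read out with a viability assay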
Description: SANGER: Inhibition of human LK-2 cell growth in a cell viability assay.

MC-IXC = type: functional, cell-based, Homo sapiens;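 further: growth inhibition of MC-IXC cells, read out with a cell viability assay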
Description: SANGER: Inhibition of human MC-IXC cell growth in a cell viability assay.

MDA-MB-415 = type: functional, cell-based, Homo sapiens
MEL-JUSO = type: functional, cell-based, Homo sapiens;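 further: growth inhibition of human MEL-JUSO cells, read out with a cell viability assay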
Description: SANGER: Inhibition of human MEL-JUSO cell growth in a cell viability assay.

MG-63 = type: functional, cell-based, Homo sapiens;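 further: growth inhibition of human MG-63 cells, read out with a cell viability assay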
Description: SANGER: Inhibition of human MG-63 cell growth in a cell viability assay.

MKN-1 = type: functional, cell-based, Homo sapiens;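 further: growth inhibition of human MKN1 cells, read out by a cell viability measurement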
Description: SANGER: Inhibition of human MKN1 cell growth in a cell viability assay.

NCI-H1651 = type: functional, cell-based, Homo sapiens;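 further: Read-out is a cell viability assay, with IC50 expressing inhibition of NCI-H1651 cell growth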
Description: SANGER: Inhibition of human NCI-H1651 cell growth in a cell viability assay.

NCI-H2029 = type: functional, cell-based, Homo sapiens;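 further: Read-out is a viability assay on the cultured cells, and IC50 is the concentration that suppresses cell growth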
Description: SANGER: Inhibition of human NCI-H2029 cell growth in a cell viability assay.

NCI-H460 = type: functional, cell-based, Homo sapiens;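 further: cell viability assay scoring growth inhibition of human NCI-H460 cells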
Description: SANGER: Inhibition of human NCI-H460 cell growth in a cell viability assay.

NCI-H727 = type: functional, cell-based, Homo sapiens;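 further: growth inhibition of human NCI-H727 cells, read out with a cell viability assay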
Description: SANGER: Inhibition of human NCI-H727 cell growth in a cell viability assay.

NCI-H810 = type: functional, cell-based, Homo sapiens;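 further: IC50 reflects inhibition of cancer cell line growth, read out with a cell viability assay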
Description: SANGER: Inhibition of human NCI-H810 cell growth in a cell viability assay.

OVCAR-3 = type: functional, cell-based, Homo sapiens;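 further: growth inhibition of human OVCAR-3 cells, determined by a cell viability assay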
Description: SANGER: Inhibition of human OVCAR-3 cell growth in a cell viability assay.

RO82-W-1 = type: functional, cell-based, Homo sapiens;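 further: growth inhibition of human RO82-W-1 cells, measured with a cell viability assay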
Description: SANGER: Inhibition of human RO82-W-1 cell growth in a cell viability assay.

RVH-421 = type: functional, cell-based, Homo sapiens
Description: SANGER: Inhibition of human RVH-421 cell growth in a cell viability assay.

SNU-449 = type: functional, cell-based, Homo sapiens
Description: SANGER: Inhibition of human SNU-449 cell growth in a cell viability assay.

SW1990 = type: functional, cell-based, Homo sapiens;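 further: cell growth inhibition determined with a viability assay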
Description: SANGER: Inhibition of human SW1990 cell growth in a cell viability assay.

CWR22R = type: functional, cell-based, Homo sapiens;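 further: growth inhibition of 22Rv1 cells, read out with a cell viability assay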
Description: SANGER: Inhibition of human 22RV1 cell growth in a cell viability assay.

647-V = type: functional, cell-based, Homo sapiens;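 further: growth inhibition of 647-V cells, read out with a cell viability assay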
Description: SANGER: Inhibition of human 647-V cell growth in a cell viability assay.

A2780 = type: functional, cell-based, Homo sapiens;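 further: growth inhibition of A2780 cells, read out with a cell viability assay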
Description: SANGER: Inhibition of human A2780 cell growth in a cell viability assay.

CAL-62 = type: functional, cell-based, Homo sapiens;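 further: growth inhibition of CAL-62 cells, read out with a cell viability assay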
Description: SANGER: Inhibition of human CAL-62 cell growth in a cell viability assay.

U2OS = type: functional, cell-based, Homo sapiens, U-2-OS;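 further: growth inhibition of human U-2-OS cells, determined with a cell viability assay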
Description: SANGER: Inhibition of human U-2-OS cell growth in a cell viability assay.

COLO-680N = type: functional, cell-based, Homo sapiens;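 further: cell viability assay used to measure inhibition of COLO-680N cell growth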
Description: SANGER: Inhibition of human COLO-680N cell growth in a cell viability assay.

`Cc1cn(-c2cc(NC(=O)c3ccc(C)c(Nc4nccc(-c5cccnc5)n4)c3)cc(C(F)(F)F)c2)cn1` [NILOTINIB] was tested, and the IC50 (CaR-1; Homo sapiens, CaR-1) was > 2 µM, the IC50 (EFO-21; Homo sapiens, EFO-21) was > 2 µM and the IC50 (EPLC-272H; Homo sapiens, EPLC-272H) was > 2 µM. For the same molecule, the IC50 (G-401; Homo sapiens, G-401) was > 2 µM, the IC50 (H4; Homo sapiens, H4) was > 2 µM and the IC50 (HMV-2 cell line; Homo sapiens, HMV-2) was 0.749 µM. For the same molecule, the IC50 (HSC-3; Homo sapiens, HSC-3) was > 2 µM, the IC50 (HT-3; Homo sapiens, HT-3) was > 2 µM and the IC50 (HT55; Homo sapiens, HT55) was > 2 µM. The IC50 (JEG-3; Homo sapiens, JEG-3) was > 2 µM, the IC50 (KP-4; Homo sapiens, KP-4) was > 2 µM and the IC50 (KYSE-70 cell line; Homo sapiens, KYSE-70) was > 2 µM. For the same molecule, the IC50 (LCLC-103H cell line; Homo sapiens, LCLC-103H) was > 2 µM, the IC50 (LK-2; Homo sapiens, LK-2) was > 2 µM and the IC50 (MC-IXC; Homo sapiens, MC-IXC) was > 2000 nM. The IC50 (MDA-MB-415; Homo sapiens, MDA-MB-415) was > 2 µM, the IC50 (MEL-JUSO; Homo sapiens, MEL-JUSO) was > 2 µM and the IC50 (MG-63; Homo sapiens, MG-63) was > 2 µM. For the same molecule, the IC50 (MKN-1; Homo sapiens, MKN-1) was > 2 µM, the IC50 (NCI-H1651; Homo sapiens, NCI-H1651) was > 2 µM and the IC50 (NCI-H2029; Homo sapiens, NCI-H2029) was > 2 µM. The IC50 (NCI-H460; Homo sapiens, NCI-H460) was > 2 µM, the IC50 (NCI-H727; Homo sapiens, NCI-H727) was > 2 µM and the IC50 (NCI-H810; Homo sapiens, NCI-H810) was > 2 µM. For the same molecule, the IC50 (OVCAR-3; Homo sapiens, OVCAR-3) was > 2 µM, the IC50 (RO82-W-1; Homo sapiens, RO82-W-1) was > 2 µM and the IC50 (RVH-421; Homo sapiens, RVH-421) was > 2 µM. For the same molecule, the IC50 (SNU-449; Homo sapiens, SNU-449) was > 2 µM, the IC50 (SW1990; Homo sapiens, SW1990) was > 2 µM and the IC50 (CWR22R; Homo sapiens, 22Rv1) was > 2 µM. The IC50 (647-V; Homo sapiens, 647-V) was > 2 µM, the IC50 (A2780; Homo sapiens, A2780) was > 2 µM and the IC50 (CAL-62; Homo sapiens, CAL-62) was > 2 µM. For the same molecule, the IC50 (U2OS; Homo sapiens, U2OS) was > 2 µM and the IC50 (COLO-680N; Homo sapiens, COLO-680N) was > 2 µM.

In the case of `CO[C@H]1C[C@@H]2CC[C@@H](C)[C@@](O)(O2)C(=O)C(=O)N2CCCC[C@H]2C(=O)O[C@H]([C@H](C)C[C@@H]2CC[C@@H](OC(=O)C(C)(CO)CO)[C@H](OC)C2)CC(=O)[C@H](C)/C=C(\C)[C@@H](O)[C@@H](OC)C(=O)[C@H](C)C[C@H](C)/C=C/C=C/C=C/1C` [TEMSIROLIMUS], the IC50 (CaR-1; Homo sapiens, CaR-1) is reported as > 0.2 µM, the IC50 (EFO-21; Homo sapiens, EFO-21) is reported as > 0.2 µM and the IC50 (EPLC-272H; Homo sapiens, EPLC-272H) is reported as > 0.2 µM. For the same molecule, the IC50 (G-401; Homo sapiens, G-401) was 0.089 µM, the IC50 (H4; Homo sapiens, H4) was 0.00107 µM and the IC50 (HMV-2 cell line; Homo sapiens, HMV-2) was > 0.2 µM. For the same molecule, the IC50 (HSC-3; Homo sapiens, HSC-3) was 0.0387 µM, the IC50 (HT-3; Homo sapiens, HT-3) was > 0.2 µM and the IC50 (HT55; Homo sapiens, HT55) was > 0.2 µM. The IC50 (JEG-3; Homo sapiens, JEG-3) was > 0.2 µM, the IC50 (KP-4; Homo sapiens, KP-4) was 0.116 µM and the IC50 (KYSE-70 cell line; Homo sapiens, KYSE-70) was > 0.2 µM. The IC50 (LCLC-103H cell line; Homo sapiens, LCLC-103H) was > 0.2 µM, the IC50 (LK-2; Homo sapiens, LK-2) was > 0.2 µM and the IC50 (MC-IXC; Homo sapiens, MC-IXC) was > 200 nM. It also gave an IC50 (MDA-MB-415; Homo sapiens, MDA-MB-415) of 0.036 µM, an IC50 (MEL-JUSO; Homo sapiens, MEL-JUSO) of 0.0666 µM and an IC50 (MG-63; Homo sapiens, MG-63) of 0.134 µM. The IC50 (MKN-1; Homo sapiens, MKN-1) was > 0.2 µM, the IC50 (NCI-H1651; Homo sapiens, NCI-H1651) was > 0.2 µM and the IC50 (NCI-H2029; Homo sapiens, NCI-H2029) was > 0.2 µM. For the same molecule, the IC50 (NCI-H460; Homo sapiens, NCI-H460) was > 0.2 µM, the IC50 (NCI-H727; Homo sapiens, NCI-H727) was > 0.2 µM and the IC50 (NCI-H810; Homo sapiens, NCI-H810) was > 0.2 µM. For the same molecule, the IC50 (OVCAR-3; Homo sapiens, OVCAR-3) was > 0.2 µM, the IC50 (RO82-W-1; Homo sapiens, RO82-W-1) was > 0.2 µM and the IC50 (RVH-421; Homo sapiens, RVH-421) was 0.187 µM. For the same molecule, the IC50 (SNU-449; Homo sapiens, SNU-449) was > 0.2 µM, the IC50 (SW1990; Homo sapiens, SW1990) was > 0.2 µM and the IC50 (CWR22R; Homo sapiens, 22Rv1) was > 0.2 µM. For the same molecule, the IC50 (647-V; Homo sapiens, 647-V) was > 0.2 µM, the IC50 (A2780; Homo sapiens, A2780) was 0.00588 µM and the IC50 (CAL-62; Homo sapiens, CAL-62) was 0.117 µM. For the same molecule, the IC50 (U2OS; Homo sapiens, U2OS) was 0.0702 µM and the IC50 (COLO-680N; Homo sapiens, COLO-680N) was > 0.2 µM.

`CS(=O)(=O)c1ccc(C(=O)Nc2ccc(Cl)c(-c3ccccn3)c2)c(Cl)c1` [VISMODEGIB] was tested, and the IC50 (CaR-1; Homo sapiens, CaR-1) was > 10 µM, the IC50 (EFO-21; Homo sapiens, EFO-21) was > 10 µM and the IC50 (EPLC-272H; Homo sapiens, EPLC-272H) was > 10 µM. The IC50 (G-401; Homo sapiens, G-401) was > 10 µM, the IC50 (H4; Homo sapiens, H4) was > 10 µM and the IC50 (HMV-2 cell line; Homo sapiens, HMV-2) was > 10 µM. The IC50 (HSC-3; Homo sapiens, HSC-3) was > 10 µM, the IC50 (HT-3; Homo sapiens, HT-3) was > 10 µM and the IC50 (HT55; Homo sapiens, HT55) was > 10 µM. For the same molecule, the IC50 (JEG-3; Homo sapiens, JEG-3) was > 10 µM, the IC50 (KP-4; Homo sapiens, KP-4) was > 10 µM and the IC50 (KYSE-70 cell line; Homo sapiens, KYSE-70) was > 10 µM. For the same molecule, the IC50 (LCLC-103H cell line; Homo sapiens, LCLC-103H) was > 10 µM, the IC50 (LK-2; Homo sapiens, LK-2) was > 10 µM and the IC50 (MC-IXC; Homo sapiens, MC-IXC) was > 10000 nM. For the same molecule, the IC50 (MDA-MB-415; Homo sapiens, MDA-MB-415) was > 10 µM, the IC50 (MEL-JUSO; Homo sapiens, MEL-JUSO) was > 10 µM and the IC50 (MG-63; Homo sapiens, MG-63) was > 10 µM. The IC50 (MKN-1; Homo sapiens, MKN-1) was > 10 µM, the IC50 (NCI-H1651; Homo sapiens, NCI-H1651) was > 10 µM and the IC50 (NCI-H2029; Homo sapiens, NCI-H2029) was > 10 µM. The IC50 (NCI-H460; Homo sapiens, NCI-H460) was > 10 µM, the IC50 (NCI-H727; Homo sapiens, NCI-H727) was > 10 µM and the IC50 (NCI-H810; Homo sapiens, NCI-H810) was > 10 µM. The IC50 (OVCAR-3; Homo sapiens, OVCAR-3) was > 10 µM, the IC50 (RO82-W-1; Homo sapiens, RO82-W-1) was > 10 µM and the IC50 (RVH-421; Homo sapiens, RVH-421) was > 10 µM. For the same molecule, the IC50 (SNU-449; Homo sapiens, SNU-449) was > 10 µM, the IC50 (SW1990; Homo sapiens, SW1990) was > 10 µM and the IC50 (CWR22R; Homo sapiens, 22Rv1) was > 10 µM. The IC50 (647-V; Homo sapiens, 647-V) was > 10 µM, the IC50 (A2780; Homo sapiens, A2780) was > 10 µM and the IC50 (CAL-62; Homo sapiens, CAL-62) was > 10 µM. For the same molecule, the IC50 (U2OS; Homo sapiens, U2OS) was > 10 µM and the IC50 (COLO-680N; Homo sapiens, COLO-680N) was > 10 µM.

CISPLATIN showed an IC50 (CaR-1; car-1) of 755 µM, an IC50 (EFO-21; efo-21) of 33.7 µM and an IC50 (EPLC-272H; eplc-272h) of 13 µM. The IC50 (G-401; g-401) was 7.25 µM, the IC50 (H4; h4) was 4.71 µM and the IC50 (HMV-2 cell line; hmv-2) was 11.2 µM. The IC50 (HSC-3; hsc-3) was 21.9 µM, the IC50 (HT-3; ht-3) was 5.04 µM and the IC50 (HT55; ht55) was 118 µM. For the same molecule, the IC50 (JEG-3; jeg-3) was 10.3 µM, the IC50 (KP-4; kp-4) was 11.7 µM and the IC50 (KYSE-70 cell line; kyse-70) was 48.7 µM. For the same molecule, the IC50 (LCLC-103H cell line; lclc-103h) was 28.2 µM, the IC50 (LK-2; lk-2) was 44.3 µM and the IC50 (MC-IXC; mc-ixc) was 1680 nM. The IC50 (MDA-MB-415; mda-mb-415) was 48.4 µM, the IC50 (MEL-JUSO; mel-juso) was 18.8 µM and the IC50 (MG-63; mg-63) was 100 µM. It also gave an IC50 (MKN-1; mkn-1) of 42.1 µM, an IC50 (NCI-H1651; nci-h1651) of 7.06 µM and an IC50 (NCI-H2029; nci-h2029) of 961 µM. It also gave an IC50 (NCI-H460; nci-h460) of 345 µM, an IC50 (NCI-H727; nci-h727) of 691 µM and an IC50 (NCI-H810; nci-h810) of 273 µM. For the same molecule, the IC50 (OVCAR-3; ovcar-3) was 696 µM, the IC50 (RO82-W-1; ro82-w-1) was 72.1 µM and the IC50 (RVH-421; rvh-421) was 40.6 µM. For the same molecule, the IC50 (SNU-449; snu-449) was 72 µM, the IC50 (SW1990; sw1990) was 9.71 µM and the IC50 (CWR22R; cwr22r) was 25.3 µM. For the same molecule, the IC50 (647-V; 647-v) was 114 µM, the IC50 (A2780; a2780) was 6.39 µM and the IC50 (CAL-62; cal-62) was 301 µM. It also gave an IC50 (U2OS; u-2-os) of 13.4 µM and an IC50 (COLO-680N; colo-680n) of 23.6 µM.
